≈ marks a conversion by molar mass, not a printed value.
What was measured:
Escherichia coli [1] = test: In vitro antibacterial activity against Escherichia coli (A 15119); type: functional
Enterobacter cloacae = test: In vitro antibacterial activity against Enterobacter cloacae (A 9656); type: functional
Klebsiella pneumoniae [2] = test: In vitro antibacterial activity against Klebsiella pneumoniae (A 9664); type: functional
Morganella morganii = test: In vitro antibacterial activity against Morganella morganii (A 15153); type: functional
Pseudomonas aeruginosa [3] = test: In vitro antibacterial activity against Pseudomonas aeruginosa (A 9843); type: functional
Staphylococcus aureus [4] = test: In vitro antibacterial activity against Staphylococcus aureus Smith (A9537); type: functional
Escherichia coli [5] = test: In vivo efficacy in systemic infection due to Escherichia coli (A 15119) in mice; type: functional; conditions: read-out: PD50
Klebsiella pneumoniae [6] = test: In vivo efficacy in systemic infection due to Klebsiella pneumoniae (A 9664) in mice; type: functional; conditions: read-out: PD50
Pseudomonas aeruginosa [7] = test: In vivo efficacy in systemic infection due to Pseudomonas aeruginosa (A 9843) in mice; type: functional; conditions: read-out: PD50
Staphylococcus aureus [8] = test: In vivo efficacy in systemic infection due to Staphylococcus aureus Smith (A 9537) in mice; type: functional; conditions: read-out: PD50
Canis familiaris = test: Area under the concentration/ time in plasma after oral administration in dog (25 mg/kg); type: ADME, organism-based, Canis lupus familiaris; conditions: in vivo
[9] = Maximum concentration in plasma after oral administration in dog (25 mg/kg); type: ADME, organism-based, Canis lupus familiaris; set-up: dose 25 mg/kg, route oral
[10] = Urinary recovery after 24 hr in plasma after oral administration in dog (25 mg/kg); type: ADME, organism-based, Canis lupus familiaris; conditions: urine, read-out: UR
[11] = Lethal dose of compound in OF1-strain female swiss mice after oral administration; type: toxicity, organism-based; conditions: mouse, in vivo
[12] = Escherichia coli, read-out: MIC
[13] = Enterobacter cloacae, read-out: MIC
[14] = Klebsiella pneumoniae, read-out: MIC
[15] = Morganella morganii, read-out: MIC
[16] = Pseudomonas aeruginosa, read-out: MIC
[17] = Staphylococcus aureus, read-out: MIC

| MIC (Escherichia coli [1]; [12]) [µg/mL] | MIC (Enterobacter cloacae; [13]) [µg/mL] | MIC (Klebsiella pneumoniae [2]; [14]) [µg/mL] | MIC (Pseudomonas aeruginosa [3]; [16]) [µg/mL] | MIC (Staphylococcus aureus [4]; [17]) [µg/mL] | SMILES | MIC (Morganella morganii; [15]) [µg/mL] | also measured |
| --- | --- | --- | --- | --- | --- | --- | --- |
| 0.13 (≈ 0.319 µM) | 0.25 (≈ 0.614 µM) | 0.25 (≈ 0.614 µM) | 4 (≈ 9.82 µM) | 0.13 (≈ 0.319 µM) | O=C(O)c1cn(C2(c3ccccc3)CC2)c2cc(N3CCNCC3)c(F)cc2c1=O | 0.25 (≈ 0.614 µM) | – |
| 2 (≈ 5.06 µM) | 4 (≈ 10.1 µM) | 4 (≈ 10.1 µM) | 32 (≈ 80.9 µM) | 4 (≈ 10.1 µM) | CC(c1ccccc1)n1cc(C(=O)O)c(=O)c2cc(F)c(N3CCNCC3)cc21 (centres undefined) | 16 (≈ 40.5 µM) | – |
| 2 (≈ 4.7 µM) | 4 (≈ 9.4 µM) | 8 (≈ 18.8 µM) | 63 (≈ 148 µM) | 8 (≈ 18.8 µM) | O=C(O)c1cn(C23CC4CC(CC(C4)C2)C3)c2cc(N3CCNCC3)c(F)cc2c1=O | 32 (≈ 75.2 µM) | – |
| 0.25 (≈ 0.748 µM) | 0.5 (≈ 1.5 µM) | 1 (≈ 2.99 µM) | 4 (≈ 12 µM) | 2 (≈ 5.98 µM) | CC(C)n1cc(C(=O)O)c(=O)c2cc(F)c(N3CCNCC3)nc21 | 1 (≈ 2.99 µM) | – |
| 0.05 (≈ 0.129 µM) | – | 0.1 (≈ 0.259 µM) | 0.39 (≈ 1.01 µM) | 0.39 (≈ 1.01 µM) | O=C(O)c1cn(-c2ccc(F)cc2)c2nc(N3CCNCC3)c(F)cc2c1=O | – | – |
| – | – | – | – | – | CC1CC1n1cc(C(=O)O)c(=O)c2cc(F)c(N3CCNCC3)cc21 (stereo in doubt; 12) | – | MIC (Escherichia coli [1]): 0.06 µg/mL (≈ 0.174 µM); MIC (Enterobacter cloacae): 0.13 µg/mL (≈ 0.376 µM); MIC (Klebsiella pneumoniae [2]): 2 µg/mL (≈ 5.79 µM); MIC (Morganella morganii): 1 µg/mL (≈ 2.9 µM); MIC (Pseudomonas aeruginosa [3]): 2 µg/mL (≈ 5.79 µM); MIC (Staphylococcus aureus [4]): 1 µg/mL (≈ 2.9 µM) |
| 0.13 (≈ 0.406 µM) | 0.5 (≈ 1.56 µM) | 0.5 (≈ 1.56 µM) | 0.5 (≈ 1.56 µM) | 0.25 (≈ 0.78 µM) | CCn1cc(C(=O)O)c(=O)c2cc(F)c(N3CCNCC3)nc21 [ENOXACIN] | 0.13 (≈ 0.406 µM) | – |
| 0.05 (≈ 0.13 µM) | – | 0.02 (≈ 0.0519 µM) | 0.39 (≈ 1.01 µM) | 0.2 (≈ 0.519 µM) | O=C(O)c1cn(-c2ccc(F)cc2)c2cc(N3CCNCC3)c(F)cc2c1=O [SARAFLOXACIN] | – | – |

| SMILES | MIC (Escherichia coli [1]; [12]) [µg/mL] | MIC (Enterobacter cloacae; [13]) [µg/mL] | MIC (Klebsiella pneumoniae [2]; [14]) [µg/mL] | MIC (Pseudomonas aeruginosa [3]; [16]) [µg/mL] | MIC (Staphylococcus aureus [4]; [17]) [µg/mL] | MIC (Morganella morganii; [15]) [µg/mL] | also measured |
| --- | --- | --- | --- | --- | --- | --- | --- |
| CC(C)(C)n1cc(C(=O)O)c(=O)c2cc(F)c(N3CCNCC3)c(F)c21 | 0.06 (≈ 0.164 µM) | 0.25 (≈ 0.684 µM) | 0.25 (≈ 0.684 µM) | 4 (≈ 10.9 µM) | 0.25 (≈ 0.684 µM) | 0.5 (≈ 1.37 µM) | – |
| O=C(O)c1cn(CC2CC2)c2cc(N3CCNCC3)c(F)cc2c1=O | 0.5 (≈ 1.45 µM) | 4 (≈ 11.6 µM) | 2 (≈ 5.79 µM) | 4 (≈ 11.6 µM) | 1 (≈ 2.9 µM) | 1 (≈ 2.9 µM) | – |
| O=C(O)c1cn(C2CC2)c2nc(N3CCNCC3)c(F)cc2c1=O | 0.06 (≈ 0.181 µM) | 0.06 (≈ 0.181 µM) | 0.06 (≈ 0.181 µM) | 0.06 (≈ 0.181 µM) | 0.25 (≈ 0.752 µM) | 0.06 (≈ 0.181 µM) | ED50 (Escherichia coli [5]): 0.5 mg/kg; ED50 (Klebsiella pneumoniae [6]): 2.2 mg/kg; ED50 (Pseudomonas aeruginosa [7]): 3.6 mg/kg; ED50 (Staphylococcus aureus [8]): 6.7 mg/kg |
| CC1CC1n1cc(C(=O)O)c(=O)c2cc(F)c(N3CCNCC3)cc21 (stereo in doubt; 13) | – | – | 1 (≈ 2.9 µM) | 1 (≈ 2.9 µM) | – | – | MIC (Escherichia coli [1]): 0.13 µg/mL (≈ 0.376 µM); MIC (Enterobacter cloacae): 0.5 µg/mL (≈ 1.45 µM); MIC (Morganella morganii): 0.25 µg/mL (≈ 0.724 µM); MIC (Staphylococcus aureus [4]): 0.13 µg/mL (≈ 0.376 µM) |
| O=C(O)c1cn(C2CC2)c2cc(N3CCNCC3)c(F)cc2c1=O [CIPROFLOXACIN] | – | – | 0.03 (≈ 0.0905 µM) | 0.13 (≈ 0.392 µM) | 0.13 (≈ 0.392 µM) | 0.015 (≈ 0.0453 µM) | AUC (Canis familiaris): 20 µg/mL; Cmax [9]: 3000 ng/mL; dose excreted at 24 h [10]: 17%; ED50 (Escherichia coli [5]): 0.7 mg/kg; ED50 (Klebsiella pneumoniae [6]): 1.5 mg/kg; ED50 (Pseudomonas aeruginosa [7]): 5 mg/kg; ED50 (Staphylococcus aureus [8]): 4 mg/kg |
| CCn1cc(C(=O)O)c(=O)c2cc(F)c(N3CCNCC3)cc21 [NORFLOXACIN] | 0.13 (≈ 0.407 µM) | 0.06 (≈ 0.188 µM) | 0.03 (≈ 0.0939 µM) | 0.5 (≈ 1.57 µM) | 0.25 (≈ 0.783 µM) | 0.015 (≈ 0.047 µM) | ED50 (Escherichia coli [5]): 3 mg/kg; ED50 (Klebsiella pneumoniae [6]): 8 mg/kg; LD50 [11]: > 2500 mg/kg; ED50 (Pseudomonas aeruginosa [7]): 16 mg/kg; ED50 (Staphylococcus aureus [8]): 10 mg/kg |

— ChEMBL document CHEMBL1124630, “Fluoronaphthyridines and quinolones as antibacterial agents. 1. Synthesis and structure-activity relationships of new 1-substituted derivatives” (J Med Chem, 1989)
